Measurements: patent publication EP4467141A1, “PYRAZOLO-QUINOLINES AS SELECTIVE INHIBITORS OF GENOTOXIC STRESS-INDUCED IKK/NF- KB PATHWAYS FOR CANCER THERAPY” (Max-Delbrück-Centrum für Molekulare Medizin in der …, priority 2023, dated 2024)

System: Akt phosphorylation (S473)
Test: Western blot of Akt phosphorylation (S473) in U2-OS cells
Assay type: cell-based
Conditions: 1-hour pre-treatment
Procedure: Fig.2: MW01 and MW05 are potent and selective kinase inhibitors. […] Heatmap indicates lower IC50. […] (C) Western blot analysis of NF-κB p65 phosphorylation (S536) and Akt phosphorylation (S473) following 1-hour pre-treatment with DMSO, MW01 (10 µM), MW05 (10µM), PI-103 (1 µM), NU7441 (1 µM), or MU1210 (1 µM) in unstimulated, after 90 min irradiation (IR, 20 Gy), or after 20 min TNFα (10 ng/ml) conditions in U2-OS cells. (D) mRNA expression analysis of CLK2 (top), 48 hours after transfection with siNC, CLK2 si1, or CLK2 si2. mRNA expression analysis of NFKBIA (bottom), 48 hours after transfection with siNC, CLK2 si1, orCLK2 si2. Values are normalized to unstimulated siNC expressing cells. Statistical comparison was made between experimental conditions and respective paired siNC expressing controls. ns: not significant; **, ***, ****: p<0.01, p<0.001, p<0.000. (E) Western blot analysis of U2-OS cells after transfection with siNC or CLK2 si2 unstimulated, after irradiation (IR), or after TNFα treatment. Vinculin used as loading control. (F) IC50 (nM) of all CLK isoforms for MW01 and MW05. (G) Quantification from (E) with CLK2 knockdown and p-p65 quantification (top left and top right, respectively) and CLK4 knockdown and p-p65 (bottom left and bottom right, respectively. ns: not significant; **, ***, ****: p<0.01, p<0.001, p<0.0001.
Cells were collected by scraping and lysed in Baeuerle lysis buffer supplemented with Protease (Thermo Fisher Scientific, 78429) and Phosphatase (Thermo Fisher Scientific, 78420) inhibitors after the appropriate treatment and time point. Proteins were quantified by Bradford assay (Bio-Rad, 5000006) and 20-50 µg of extracted proteins were loaded on 4-20% Protein Gel (Bio-Rad, 4568096) and then transferred onto a PVDF membrane (Bio-Rad, 1620177) using Tris-Glycine buffer with 20% of methanol. Blocking was performed for 1h with 5% not-fat dry milk in PBS 1X. […] The membranes were analyzed by ECL (Thermo Fisher Scientific, 34580) and detected by ChemiDoc XRS+ (Bio-Rad) using ImageLab software (Bio-Rad). […]

Row | Structure (SMILES) | reduction of p-Akt
1 | COc1ccc2c(c1OC)c(=O)n1c3ccc(O)cc3c3ccnc2c31 [MW01, 5-Hydroxy-10,11-dimethoxy-9H-benzo[c]indolo[3,2,1-ij][1,5]naphthyridin-9-one] | complete reduction
2 | COc1ccc2cc3c(N)nn(C(=O)c4cccc(N(C)C)c4)c3nc2c1 [MW05, (3-Amino-7-methoxypyrazolo[3,4-b]quinolin-1-yl)-[3-(dimethylamino)phenyl]methanone] | partial reduction
